In patent US8349791B2, “Polypeptides that bind membrane proteins” (The Trustees of the University of Pennsylvania, priority 2006, dated 2013):

Biological target: T1, αVβ3 (Homo sapiens, UniProt P06756)
T1 construct: Platelets express a second integrin with a β3 subunit, αVβ3; endogenous in cells; host or cells: gel-filtered human platelets
Experiment: Platelet adhesion to immobilized osteopontin
Type: cell-based
Description: The integrin αVβ3 mediates adhesion of platelets to the matrix protein osteopontin, potentially exposed to the circulating blood by rupture of an atherosclerotic plaque. […] The potency of anti-αv in inducing platelet adhesion to osteopontin was approximately 10-fold lower than that of anti-αIIb in inducing platelet aggregation (FIG. 11). Adhesion of platelets in 100 μl aliquots of gel-filtered human platelets to immobilized osteopontin was induced by the indicated concentrations of anti-αV, either alone or in the presence of the calcium chelator 2.5 mM EDTA or the global platelet signal transduction inhibitor 2 μM PGE1. Platelets stimulated by 20 μM ADP served as a positive control. Platelet adhesion was quantitated using a colorimetric assay based on measurement of platelet acid phosphatase activity. The data shown in FIG. 11 are the mean and standard error of measurements made in triplicate. Anti-αV-induced adhesion was prevented by agents that inhibit the interaction of αVβ3's extracellular ligand-binding site with osteopontin, including EDTA or the specific RGD-containing αVβ3 antagonist XJ735, confirming that anti-αV induced platelet adhesion to osteopontin is mediated by αVβ3.
Platelet adhesion to osteopontin was measured as previously described. See Fleming K G J. Mol. Biol. 323, 563-571 (2002). Briefly, 96-well flat bottom microtiter plates (Immulon 2, Dynatech, Chantilly Va.) were coated with 5 μg/ml of recombinant osteopontin dissolved in 50 mM NaHCO3 buffer, pH 8.0, containing 150 mM NaCl. Unoccupied protein binding sites on the wells were blocked with 5 mg/ml bovine serum albumin dissolved in the same buffer. One hundred μl aliquots of a gel-filtered platelet suspension containing ≈2-5×10^6 platelets were added to the protein-coated wells in the absence or presence of anti-αV or ADP. Following an incubation for 30 min at 37° C. without agitation, the plates were washed four times and the number of adherent platelets measured using a colorimetric assay that measure platelet acid phosphatase activity. The polypeptide was added from a DMSO solution such that the final concentration of DMSO was no greater than 0.5%. All controls also had 0.5% DMSO in the buffer.

T1 sequence (P06756 891-1048 limits assumed): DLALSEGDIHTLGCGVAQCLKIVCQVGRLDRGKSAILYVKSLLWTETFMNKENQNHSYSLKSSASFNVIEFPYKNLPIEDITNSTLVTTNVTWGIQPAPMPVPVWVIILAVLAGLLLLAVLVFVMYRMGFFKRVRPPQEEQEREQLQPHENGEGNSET
T1 sequence (P06756 31-889 partner limits assumed): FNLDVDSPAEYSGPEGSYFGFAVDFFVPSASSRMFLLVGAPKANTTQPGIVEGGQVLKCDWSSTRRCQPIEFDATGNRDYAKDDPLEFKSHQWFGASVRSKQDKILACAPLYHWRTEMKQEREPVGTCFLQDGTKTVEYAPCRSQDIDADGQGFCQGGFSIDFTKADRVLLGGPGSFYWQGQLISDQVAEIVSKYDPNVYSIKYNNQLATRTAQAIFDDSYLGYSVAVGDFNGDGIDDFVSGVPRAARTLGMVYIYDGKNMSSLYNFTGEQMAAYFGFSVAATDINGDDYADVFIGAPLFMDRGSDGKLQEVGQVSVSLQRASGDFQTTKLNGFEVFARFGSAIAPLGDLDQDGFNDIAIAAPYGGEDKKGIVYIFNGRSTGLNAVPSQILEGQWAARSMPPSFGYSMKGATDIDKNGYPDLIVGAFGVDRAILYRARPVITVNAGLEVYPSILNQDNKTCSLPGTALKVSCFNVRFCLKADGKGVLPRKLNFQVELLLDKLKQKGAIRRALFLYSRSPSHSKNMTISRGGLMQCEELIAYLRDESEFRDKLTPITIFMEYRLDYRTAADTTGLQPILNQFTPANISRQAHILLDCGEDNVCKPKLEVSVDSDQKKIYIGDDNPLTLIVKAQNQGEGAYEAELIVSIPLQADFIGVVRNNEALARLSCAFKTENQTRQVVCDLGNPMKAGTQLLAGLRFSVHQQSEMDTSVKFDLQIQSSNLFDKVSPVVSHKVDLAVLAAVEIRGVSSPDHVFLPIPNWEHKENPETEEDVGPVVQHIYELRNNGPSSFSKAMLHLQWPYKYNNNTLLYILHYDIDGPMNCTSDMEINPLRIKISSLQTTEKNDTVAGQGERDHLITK
T1 sequence (P05106 27-788 partner): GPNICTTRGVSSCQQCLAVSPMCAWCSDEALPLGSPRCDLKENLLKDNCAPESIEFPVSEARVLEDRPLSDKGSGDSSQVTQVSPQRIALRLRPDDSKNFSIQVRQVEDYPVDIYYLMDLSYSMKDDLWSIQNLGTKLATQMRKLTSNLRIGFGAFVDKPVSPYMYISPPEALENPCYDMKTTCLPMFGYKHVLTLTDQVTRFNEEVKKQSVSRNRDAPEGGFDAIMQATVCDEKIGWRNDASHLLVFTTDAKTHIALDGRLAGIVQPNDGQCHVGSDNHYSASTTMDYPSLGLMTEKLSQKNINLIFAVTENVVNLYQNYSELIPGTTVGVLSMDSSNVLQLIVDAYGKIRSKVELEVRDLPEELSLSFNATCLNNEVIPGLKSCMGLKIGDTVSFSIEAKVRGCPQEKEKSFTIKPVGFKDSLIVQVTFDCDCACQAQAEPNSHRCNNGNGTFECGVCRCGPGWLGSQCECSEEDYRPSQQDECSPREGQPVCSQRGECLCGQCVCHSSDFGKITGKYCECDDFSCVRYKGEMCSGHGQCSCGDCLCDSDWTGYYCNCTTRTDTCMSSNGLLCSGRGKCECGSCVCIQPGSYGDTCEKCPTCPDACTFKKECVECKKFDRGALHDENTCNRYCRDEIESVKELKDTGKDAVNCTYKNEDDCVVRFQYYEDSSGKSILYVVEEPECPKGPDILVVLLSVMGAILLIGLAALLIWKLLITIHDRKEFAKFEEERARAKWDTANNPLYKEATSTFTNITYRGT

Sequence: AYVFILLSFILGTLLGFLVMFWA [anti-αV]
- potency in inducing platelet adhesion to osteopontin, lower than that of anti-αIIb in inducing platelet aggregation: approximately 10 fold
- induced adhesion after pre-incubating the platelets with PGE1 (2 μM PGE1): only minimally affected
- induced adhesion in the presence of EDTA or αVβ3 antagonist XJ735 (2.5 mM EDTA): prevented
- platelet adhesion to osteopontin (absence of pharmacological platelet agonists): induced robust platelet adhesion to osteopontin
